Where two headings read alike, the source gives them in different places.
Columns and labels:
[1] = tested on: E13.5 rat pancreatic explants; assay: TUNEL labelling of apoptotic amylase or insulin cells; type: cell-based
Description: TUNEL labelling: Terminal deoxynucleotidyltransferase-mediated dUTP-biotin nick end labeling (TUNEL) experiments were performed using an in situ cell death detection kit (Roche) and followed by insulin and amylase immunostaining.
The effects of HDACi treatment on pancreatic differentiation are independent of proliferation and apoptosis: The observed effects of HDACi on pancreatic development could be attributed to a direct effect of HDAC inhibition on the differentiation program itself or to an indirect effect on proliferation/apoptosis. First, the inventors asked whether the massive increase in the number of NGN3+ cells was accompanied by an increased proliferation of early PDX1+ pancreatic precursor cells that would give rise to more NGN3+ endocrine progenitor cells (20). Thus, they cultured pancreases for 1 day with or without VPA and TSA and added BrdU to the medium during the last hour of culture. No difference in BrdU incorporation was seen. The percentage of PDX1+/BrdU+ was 30.4±1.4% in control conditions, 29.3±2.3% with VPA and 31.9±1.4% in TSA-treated pancreases. They next determined whether the greater number of NGN3+ cells was associated with increased proliferation of such cells. […] Given the observed increase in glucagon-expressing cells with HDACi treatment, the inventors also tested for increased proliferation of such cells. […]

[2] = tested on: E13.5 rat pancreatic explants; assay: Real-time PCR of lineage markers in cultured pancreatic explants with HDACi; type: cell-based; conditions: for Arx expression enhanced / Ngn3 expression peak, higher than in controls / increase in PP expression / increase in glucagon expression: day7; for SPP1 expression: especially after 5 and 7 days of culture; for Ngn3 expression profile: from day1; for Pax4 expression: over 7 days of culture; for increase in levels of Mist1 / increase in levels of P48 / increase in levels of amylase: vs control; for endocrine β/δ lineage: MS275 1 μM, NaB 125 μM
Description: The first day post-coitum was taken as embryonic day 0.5 (E0.5). Pregnant female rats at 13.5 days of gestation were killed by CO2asphyxiation, according to the French Animal Care Committee's guidelines. Dorsal pancreatic buds from E13.5 rat embryos were dissected as described previously (2).
(§2) Organ culture, HDACi treatments, BrdU incorporation: Pancreases were laid on 0.45 μm filters (Millipore) at the air-medium interface in Petri dishes, containing RPMI 1640
RNA extraction and real-time PCR: Total RNA was extracted from pools of at least three pancreases using RNeasy Microkit (Qiagen) and reverse transcribed using Superscript reagents (Invitrogen). Real-time PCR was performed with the 7300 Fast real-time PCR System; each reaction consisted of a mix of Taqman® universal PCR master mix with a specific labelled probe (Applied Biosystem) (21). The comparative method of relative quantification (2^−ΔΔct) (38) was used to calculate expression levels of each target gene, normalized to peptidylpropyl isomerase A (ppia/cyclophilin A). The data are presented as fold changes in gene expression. At least three pools of explants were analyzed per condition and results are expressed as means±SEM. Statistical significance was determined using Student's t test.

[3] = tested on: E13.5 rat pancreatic explants; assay: Dose finding of HDACi in organ culture (cell death); conditions: TSA tested from 50 nM to 200 nM; data not shown
Description: (§1) (Invitrogen) supplemented with penicillin (100 U/mL), streptomycin (100 μg/mL), HEPES (10 mmol/L), L-glutamine (2mmol/L), non-essential amino acids (1x, Invitrogen) and 10% heat-inactivated calf serum (HyClone). Cultures were maintained at 37° C. in humidified 95% air/5% CO2. Medium was changed every other day. Explants were cultured in the presence of VPA or TSA (Sigma). We determined the optimal concentration of both inhibitors by testing increasing doses of VPA (from 0.75 mM to 3 mM) and TSA (from 50 nM to 200 nM). […] MS275 and NaB (Sigma) were used at 1 μM and 125 μM, respectively. For cell proliferation assay, 10 μM BrdU (Sigma) was added to the medium during the last hour of culture.

[4] = tested on: Total cellular HDAC enzyme activity; assay: HDAC enzyme activity assay (total cellular HDAC activity of treated explant extracts); type: biochemical; conditions: extracts of cultured rat pancreatic explants treated with 1 mM VPA or 100 nM TSA
Description: HDAC enzyme activity assay: Total cellular HDAC enzyme activity was measured using an HDAC assay kit (Millipore). Briefly, 2 μg of control or VPA- or TSA-treated cell extracts (prepared as described above) were incubated in a 96-well plate with a fluorometric substrate in HDAC assay buffer for 45 min at 37° C. An activator solution was then added to release the fluorophore from the deacetylated substrates, and fluorescence was measured in a plate-reading fluorimeter (excitation=390 nm, emission detection=460 nm).
To study the role of HDACs in pancreas development, the inventors treated rat pancreatic explants with VPA and TSA. They cultured E13.5 rat pancreases on floating filters at the air-medium interface for 14 days. Under such conditions, acinar and endocrine cells develop in a way that replicates pancreas development in vivo (2, 21). […] They next measured total HDAC activity from day 0 to day 14 and found a 65.4%±1.6% decrease between the two stages.

[5] = tested on: E13.5 rat pancreatic explants; assay: Immunohistochemistry and surface-area quantification of cultured pancreatic explants; type: cell-based; conditions: for NGN3+ cells: immunohistochemical analysis, day7; for increase in the number of glucagon-expressing cells: immunohistological analysis; for number of insulin+ cells: immunohistology, days 5 and 7; for acinar cell development (surface area occupied by amylase+ cells): vs control
Description: Dorsal pancreatic buds from E13.5 rat embryos were dissected as described previously (2).
as §2

[6] = tested on: E13.5 rat pancreatic explants; assay: Morphology of pancreases cultured with HDACi; type: cell-based; conditions: for morphology of cultured pancreas (branching, cystic structures, acinar structures): after 7 days of culture
Description: as §2
HDACi treatment suppresses acinar differentiation and promotes ductal differentiation: The inventors first compared the morphology of pancreases cultured in the presence or absence of HDACi.

[7] = tested on: class I and class II HDACs; conditions: background, refs 17 and Yoshida et al., 1990; cited from earlier work
[8] = tested on: E13.5 rat pancreatic explants; assay: BrdU incorporation cell proliferation assay in pancreatic explants; type: cell-based; conditions: for proliferative rate for glucagon+ cells: 5-day treatment, vs controls; for percentage of PDX1+/BrdU+: 1 day of culture, BrdU during last hour, control 30.4±1.4%; for proliferation of NGN3+ cells: after 3 days of culture
Description: as §1
Immunohistochemistry and quantification: Tissues were fixed in 10% formalin, pre-embedded in low gelling agarose and embedded in paraffin. All sections (4 μm thick) of each pancreatic explant were collected and processed for immunohistochemistry, as described previously (14, 46). Antibodies were used at the following dilutions: mouse anti-insulin (Sigma, 1/2000), guinea pig anti-insulin (DAKO, 1/200), mouse anti-glucagon (Sigma, 1/2000), rabbit anti-amylase (Sigma, 1/300), goat anti-osteopontin/SPP1 (R&D systems, 1/200), rabbit anti-PDXI ((14), 1/1000), mouse anti-BrdU (Amersham, ½), rabbit anti-Ngn3 ((21), 1/1000). The fluorescent secondary antibodies were: fluorescein anti-rabbit and anti-goat antibodies (Jackson Immunoresearch, 1/200), Texas-red anti-mouse antibody (Jackson Immunoresearch, 1/200) Alexa fluor 488 anti-rabbit antibody (Biogenex, 1/400) and AMCA anti-guinea pig antibody (Jackson Immunoresearch, 1/200). Nuclei were stained blue with Hoechst 33342 (0.3 μg/ml, Invitrogen). Ngn3 detection was perfointed as previously described (21) using the Vectastain elite ABC kit (Vector Laboratories). Photographs were taken using a fluorescence microscope (Leitz DMRB, Leica) and digitized using cooled 3CCD cameras (C5810 or C7780, Hamamatsu). The surface area of each staining was quantified with IPLab (Scanalytics). The surface areas per section were summed to obtain the total surface area per explant in mm2. At least three explants were analyzed per condition and results are expressed as means±SEM. Statistical significance was determined using Student's t test.
Thus, they cultured pancreases for 1 day with or without VPA and TSA and added BrdU to the medium during the last hour of culture.

[9] = tested on: E13.5 rat pancreatic explants; assay: In situ hybridization of Ngn3 transcripts in cultured pancreatic explants; type: cell-based; conditions: day5
Description: In situ hybridization: In situ hybridization was performed as previously described (15) and colorimetric development was performed with 5-bromo-4-chloro-3-indolyl phosphate (Promega) and nitroblue tetrazolium (Roche). No signal was obtained when a sense riboprobe was used.

[10] = real-time PCR, 7 days of culture

Structure (SMILES) | NeuroD1 expression ([2]; real-time PCR) | insulin expression [2, 10] | somatostatin expression [2, 10] | Arx expression enhanced ([2]; real-time PCR) | Ngn3 expression peak, higher than in controls ([2]; real-time PCR) | increase in PP expression ([2]; real-time PCR) | increase in glucagon expression ([2]; real-time PCR) | SPP1 expression ([2]; real-time PCR) | Ngn3 expression profile ([2]; real-time PCR) | Pax4 expression ([2]; real-time PCR) | increase in levels of Mist1 ([2]; real-time PCR) | increase in levels of P48 ([2]; real-time PCR) | increase in levels of amylase ([2]; real-time PCR) | decrease in HDAC activity [4] | NGN3+ cells [5] | increase in the number of glucagon-expressing cells [5] | number of insulin+ cells [5] | acinar cell development (surface area occupied by amylase+ cells) [5] | morphology of cultured pancreas (branching, cystic structures, acinar structures) [6] | HDAC class selectivity [7] | also measured
CC(/C=C/C(=O)NO)=C\[C@@H](C)C(=O)c1ccc(N(C)C)cc1 [TSA, trichostatin A] | strongly activated | no differences | no differences | ~11 fold | 14 fold | 6 fold | 25 fold | major increase | dramatic increase | strongly activated | strongly reduced | strongly reduced | strongly reduced | 99.2%±0.9% | many were present | 4 fold | no differences | much lower | the tips of the branched epithelium formed cystic structures | inhibits both class I and class II HDACs | number of apoptotic cells expressing amylase or insulin ([1]; TUNEL method): neither VPA nor TSA treatments modified the number of apoptotic cells; somatostatin expression ([2]; after 14 days in culture, data not shown): increased; insulin expression increased compared with controls ([2]; real-time PCR, day9): 2 fold; insulin expression increased compared with controls ([2]; real-time PCR, day11): 3 fold; insulin expression increased compared with controls ([2]; real-time PCR, day14): 5 fold; concentrations that result in increased cell death [3]: above 125 nM; morphology: translucent buds at the periphery of the pancreas ([6]; after 11 days of culture): developed translucent buds; proliferative rate for glucagon+ cells [8]: no difference; percentage of PDX1+/BrdU+ [8]: 31.9±1.4%; proliferation of NGN3+ cells [8]: neither VPA nor TSA increased the proliferation; Ngn3 mRNA expression by in situ hybridization [9]: enhanced Ngn3 expression
CCCC(=O)[O-].[Na+] [NaB, sodium butyrate] | – | – | – | – | – | – | – | – | – | – | – | – | – | – | – | – | – | – | – | – | endocrine β/δ lineage [2]: results similar to those with TSA
CCCC(CCC)C(=O)O [VPA, valproic acid] | significantly lower | dramatic decrease | almost full abolition | around 3 fold | 14 fold | 4 fold | 5 fold | major increase | dramatic increase | dramatic decrease | strongly reduced | strongly reduced | strongly reduced | 93.2%±2.3% | many were present | 4 fold | major decrease | much lower | the tips of the branched epithelium formed cystic structures | preferentially targets class I HDACs | number of apoptotic cells expressing amylase or insulin [1]: neither VPA nor TSA treatments modified the number of apoptotic cells; insulin expression ([2]; tissues cultured for 14 days): remained dramatically low; insulin+ cells observed immunohistochemically ([5]; tissues cultured for 14 days): Few; proliferative rate for glucagon+ cells [8]: no difference; percentage of PDX1+/BrdU+ [8]: 29.3±2.3%; proliferation of NGN3+ cells [8]: neither VPA nor TSA increased the proliferation; Ngn3 mRNA expression by in situ hybridization [9]: enhanced Ngn3 expression
Nc1ccccc1NC(=O)c1ccc(CNC(=O)OCc2cccnc2)cc1 [MS275] | – | – | – | – | – | – | – | – | – | – | – | – | – | – | – | – | – | – | – | – | endocrine β/δ lineage [2]: results similar to those with VPA

From US20110033930A1, “METHOD FOR OBTAINING NGN3-EXPRESSING CELLS AND INSULIN PRODUCING-BETA CELLS” (priority 2008, published 2011)
